Data: paper PMC5077990, “P53 activation inhibits all types of hematopoietic progenitors and all stages of megakaryopoiesis” (Oncotarget, 2016)
“Also recorded” adds a separate entry of the source. Like-named read-outs stand apart in the source and are kept apart here.

What was measured:
[1] = test system: day 10-MKs (proplatelet formation); assay: Proplatelet formation assay; assay type: cell-based, human
Description: Then, we explored the effects of p53 stabilization on PPT formation (the step before platelet release). […] To confirm that this was due to p53 stabilization, we knocked-down p53 with 2 shRNA showing a decrease in P53 RNA and protein levels (Figure 7B/7C) and reduced expression of p53 targets (Figure 7D).
Figure 7 Effects of p53 stabilization on PPT formation A. Percentage of proplatelet-forming day 10-MKs after incubation with 0.5 or 1 μM of SAR405838 or MI-219. […] A total of 200 cells per well were counted during 4 days. Error bars in histograms represent the SD of one representative experiment performed in triplicate wells. Similar results were obtained in 3 repeated experiments. * represents statistical significance (**P<0.01). […] D. p53, MDM2, BCL-XL, BAX and p21 protein levels were analyzed in GFP^+/CD41^+ sorted cells by Western blot (at days 10 and 13 of culture). β-actin was used as loading control. […] A total of 200 cells per well were counted during 4 days (from day 11 to day 14). […]
CD41^+GFP^+ MKs were sorted at day 8 of culture and plated in 96-well plates at a concentration of 2,000 cells/well in serum-free medium containing TPO, and quantification of PPT bearing MKs was performed as previously described. […] A total of 200 cells per well were counted during 4 days. […]

[2] = test system: BFU-E (Burst Forming Unit-Erythroid) progenitors from CD34+ cells; assay: Colony assay in methylcellulose, BFU-E; assay type: cell-based, human; conditions: for IC50: Homo sapiens
Description: CD34^+cells were obtained from leukapheresis samples after mobilization of donors after informed consent in agreement with our Institute Ethic Committee (Assistance Publique des Hôpitaux de Paris) and in accordance with the Declaration of Helsinki. CD34^+cells were isolated by a positive selection using an immunomagnetic cell sorting system (AutoMacs; Miltenyi Biotec, Bergisch Gladbach, Germany). 500 to 1000 normal CD34^+cells were plated either in 1% methylcellulose assay (StemCells technologies, Vancouver, Canada) to quantify erythroid (BFU-E) and granulo-monocytic (CFU-GM) progenitors or in serum-free fibrin clot assay for quantification of MK progenitors (CFU-MK) in the absence or presence of various concentration of SAR405838 or MI-219. Cultures in methylcellulose were stimulated by addition of human recombinant growth factors: G-CSF (20 ng/mL), IL-3 (10 ng/mL) SCF (25 ng/mL, Biovitrum AB, Stockholm, Sweden), IL-6 (10 ng/mL), FLT3 (10 ng/mL) and human EPO (1 U/mL). Cultures in fibrin clot were stimulated with 10 ng/mL TPO (Kirin Brewery, Tokyo, Japan) and 25 ng/mL SCF. BFU-E and CFU-GM colonies were enumerated at day 14 of culture. CFU-MK colonies were enumerated at day 12 after labeling by an indirect immuno-alkaline phosphatase staining technique using an anti-CD41a monoclonal antibody (MoAb; Becton Dickinson, le Pont de Claix, France; clone HIP8), as previously described.

[3] = test system: Day 6 megakaryoblasts (ploidization); assay: MK ploidy by flow cytometry (CD41/CD42/vital Hoechst staining); assay type: cell-based, human; conditions: day 6 megakaryoblasts treated 72 hours, analysed day 9; SAR405838 at 1 μM; untreated control 4.4 N
Description: First, we investigated if MDM2 inhibitors affect MK ploidization. SAR405838 induced a significant reduction in the mean ploidy (3.0 N at the dose of 1 μM versus 4.4 N for untreated control or for MI-219 treatment) (Supplementary Figure S1). page 1: P53 activation inhibits all types of hematopoietic progenitors and all stages of megakaryopoiesis SUPPLEMENTARY FIGURE Supplementary Figure S1: Effect of SAR405838 on polyploidization. Day 6 megakaryoblasts were treated for 72 hours with various doses of MI-219 or SAR405838. At day 9, ploidy was analyzed by flow cytometry using a CD41/CD42/vital Hoechst staining. N represents the mean ploidy. As shown, SAR405838 induced a significant reduction in the mean ploidy (3.0N at the dose of 1μM versus 4.4N for control or for MI-219 treatment). The Figure illustrates a representative experiment in triplicate. Two other experiments in triplicate gave similar results. […]

[4] = test system: Day 8-erythroblasts; assay: Viable erythroblasts counted by Trypan blue exclusion; assay type: cell-based; conditions: Homo sapiens, day 8-erythroblasts treated 48 hours, read-out: IC50, decrease in viable cells
Description: Day 8-erythroblasts were treated with various doses of SAR405838 or MI-219 for 48 hours. The viable cells were counted by Trypan blue exclusion and the apoptotic cells were quantified by flow cytometry analysis using annexin V/ propidium iodide labeling.
B. Day 8-erythroblasts were treated with various doses of MI-219 or SAR405838 for 48 hours and counted by trypan blue exclusion. C. Day 8-erythroblasts were treated with various doses of MI-219 or SAR405838 for 48 hours and apoptotic cells were analyzed by flow cytometry using Annexin V assay. The results represent the mean of 3 independent experiments. * represents statistical significance (*P<0.05; **P<0.01; ***P<0.001).

Q: `CC(C)(C)C[C@@H]1N[C@@H](C(=O)N[C@H]2CC[C@H](O)CC2)[C@H](c2cccc(Cl)c2F)[C@]12C(=O)Nc1cc(Cl)ccc12` [SAR405838] was tested. Which “PPT (proplatelet) formation” value ([1]; 0.5 μM) did it give?
A: inhibited; also recorded: drastically decreased

Q: And the “PPT (proplatelet) formation” value ([1]; 1 μM)?
A: completely abrogated; also recorded: completely abolished

Q: What about the IC50 ([2]; 72 h, CD34+ cells treated 3 days, washed, then plated in colony assay, read-out: IC50, reduction of BFU-E progenitors) of the same compound?
A: ~2 µM

Q: What about the IC50 ([2]; CD34+ cells seeded in methylcellulose in the presence of compound, compared to untreated control, read-out: dose inducing a 50% reduction of BFU-E numbers) of the same compound?
A: 0.5 to 1 µM

Q: And the “higher sensitivity of CD34+CD38- progenitors than CD34+CD38+ progenitors (BFU-E)” value ([2]; sorted CD34+CD38- immature vs CD34+CD38+ committed cells)?
A: 2 fold

Q: What about the mean ploidy [3] of the same compound?
A: 3.0 N

Q: And the IC50 [4]?
A: 0.5 µM
